Test results from US20050043369A1, “Bactericidal antimicrobial methods and compositions for use in treating gram positive infections” (Protez Pharmaceuticals Inc., priority 2000, published 2005).
Like-named read-outs stand apart in the source and are kept apart here. Blank lines part the entries; values can stand above or below the compound they belong to.

Assays:
S. aureus SA 29213 = test: 55Fe transport assay (intracellular iron accumulation); type: cell-based, Staphylococcus aureus; conditions: for ^55Fe Accm.: compound at 2 μg/ml, S. aureus SA 29213
Procedure: Next, investigated was whether INF 401 affects intracellular iron accumulation. An ^55Fe transport assay (modified from Sebulsky, 2000) was used to examine the ability of INF 401 to transport iron inside the cell. Briefly, exponentially growing cells were diluted to OD600 0.1 in LB, incubated with ^55FeCl3 for 30 min at 37° C., washed and counted in scintillation fluid using the tritium channel of a scintillation system. […] However, the presence of INF 401 in either the absence or presence of antibiotic led to a dramatic increase in iron accumulation (209,215 and 231,621 DPM, respectively).
(§1) Activity of the compound is depicted as the minimal concentration required to kill 99.9% of S. aureus in the presence of 4 μg/ml erythromycin.

S. aureus strain SA1199 = test: Screening and titration of potentiators with erythromycin (4 μg/ml), viability read by transfer to fresh medium; type: cell-based, Staphylococcus aureus; conditions: in the presence of 4 μg/ml erythromycin
Procedure: In an exemplary screening assay, in order to identify a candidate acyl hydrazide, oxy amide or 8-hydroxy quinoline composition as an antibacterial agent potentiator, the S. aureus strain SA1199 may be used. The procedure for screening is as follows: logarithmically growing S. aureus SA1199 are inoculated to a final OD600 of 0.002 into 150 μl of LB medium containing a bacteriostatic concentration of an antimicrobial agent for that strain, for example, erythromycin (4 μg/ml) at four times the Minimal Inhibitory
Concentration (MIC). […] In preliminary studies the inventors determined that under these conditions up to 2000 viable cells were transferred after incubation with erythromycin. As confirmed by broth microdilution, at least a 1000-fold reduction in viability was required to see no visible growth after 20 hours. Acyl hydrazide, oxy amide or 8-hydroxy quinoline antibiotic potentiators may be identified as those compounds that increase the bactericidal effect of the erythromycin.
The macrolide erythromycin was chosen in the initial screen for two reasons: first, its mechanism of inhibition of protein synthesis is well characterized and second, as a macrolide, erythromycin is representative of an expanding class of agents which includes the second most prescribed antibiotic, azithromycin.
In preliminary studies the inventors determined that under these conditions up to 2000 viable cells were transferred after incubation with erythromycin. As confirmed by broth microdilution, at least a 1000-fold reduction in viability was required to see no visible growth after 20 h.
Next the activity of the hit compounds was compared by titration of the compounds in the presence of erythromycin at 4 μg/ml as described above.
as §1

S. aureus (SA1199) = test: Time kill studies (CFU counts); type: cell-based, Staphylococcus aureus; conditions: antibiotic 1×MIC + 5 μg/ml INF 401
Procedure: FIG. 5A, FIG. 5B and FIG. 5C. […]
The initial inoculum number was determined by plating an appropriate dilution on LB agar plates and determining the number of colony forming units (CFUs). At different time points an aliquot was withdrawn from each tube and cell viability was determined by plating an appropriate dilution and counting CFUs after overnight incubation.

S. aureus SA1199 [1] = test: Checkerboard two-fold broth microdilution, MIC and MBC; type: cell-based, Staphylococcus aureus; conditions: Table 2, plus 10 μg/ml INF 402, unit not given
S. aureus ATCC 29213 = test: MBEC assay system, checkerboard: planktonic MIC and biofilm MBEC; type: cell-based, Staphylococcus aureus; conditions: INF 401 at 0.3 μg/ml where in label; for MIC: Staphylococcus aureus, ATCC29213, planktonic population; for MBEC: biofilm population
Procedure: These studies were performed via the method of Dr. Howard Ceri (University of Calgary), who recently developed a method for the routine determination of the antibiotic susceptibility of biofilms. To date, the inventors have tested the effect of the combination of INF 401 on the ability of either clindamycin or rifampin to eradicate S. aureus biofilms in vitro. S. aureus ATCC 29213 was selected for the study as previous studies of this isolate as a biofilm had been conducted and the isolate served as a quality assurance organism for NCCLS standardization of antibiotic testing. Biofilms were formed as previously described for this organism (Ceri et al., 1999) using the MBEC™ assay system. Checkerboard studies were performed with each antibiotic versus INF 401.

S. aureus SA1199 [2] = test: Checkerboard two-fold broth microdilution, MIC and MBC; type: cell-based, Staphylococcus aureus; conditions: for MBC / MBC^a = MBC in the absence of INF 401: antibiotic alone; for MBC^b = MBC in the presence of 5 μg/ml of INF 401: plus 5 μg/ml INF 401
Procedure: Checkerboard titration was performed with INF 401 and erythromycin to quantitate the effects of the combination on Staphylococcal growth using two-fold serial broth microdilution. After overnight incubation, cells were transferred to fresh medium, as described above, to determine those combinations that were bactericidal to S. aureus. […] Although not determined according to NCCLS recommended procedures ([…]), the inventors considered this the Minimal Bactericidal Concentration (MBC).
The inventors next evaluated whether INF 401 was bactericidal in combination with other protein synthesis inhibitors which are bacteriostatic to S. aureus. Checkerboard studies were performed with two-fold dilutions of each antibiotic in combination with INF 401 using the assay described above in Example 2. After overnight incubation the MIC of each antibiotic was determined by visualization of bacterial growth. […] The MBC of each antibiotic was determined as described in Example 2 in the absence or presence of INF 401.

[3] = system: S. aureus strain ATTC 29213; test: Characterization of killing by INF 401 plus chloramphenicol (viability, morphology, protein, DNA, metal dependence); type: cell-based, Staphylococcus aureus; conditions: chloramphenicol 20 μg/ml or INF 401 2 μg/ml alone
Procedure: Time kill study of the effect of NF 401 in combination with chloramphenicol. Exponentially growing cells (S. aureus strain 29213) were diluted to OD600 0.1 in LB supplemented with 20 μg/ml of chloramphenicol (Cm) in the presence or absence of INF 401 (2 μg/ml) and incubated with shaking at 37° C. At indicated time points cells were harvested, washed with LB and plated on LB agar plates. Number of colony forming units (CFUs) was determined after overnight incubation.
Time kill study of the effect of iron on the bactericidal activity of INF 401. S. aureus strain 29213 was grown overnight in iron-limited Staphylococcal Siderophore Detection (SSD) medium (Heinrichs, 1999) supplemented with 2 μM FeCl3, washed with SSD and diluted 1:100 into the fresh medium containing 0, 2 or 50 μm FeCl3. Exponentially growing cells were diluted to OD600 0.01 in the corresponding medium supplemented when indicated with 20 μg/ml of chloramphenicol (Cm) and 2 μg/ml of INF 401. At 0, 1, 2 and 3.5 hours cells were plated in different dilutions to the LB agar plates and number of colony forming units (CFUs) was counted next day.

S. pneumoniae = test: Bactericidal activity (MBC) of translational inhibitors with or without INF 401 in S. pneumoniae; type: cell-based, Streptococcus pneumoniae; conditions: antibiotic alone
From the text: It would be desirable that an antibiotic potentiator of the present invention is active not only in S. aureus but also in other bacterial pathogens. The inventors have begun studies to investigate whether INF 401 can also potentiate the activity of translational inhibitors in another Gram positive pathogen, S. pneumoniae.

[4] = Staphylococcus aureus, Table 1, S. aureus SA1199, unit inferred, read-out: MBC^a = MBC in the absence of INF 401
[5] = Staphylococcus aureus, Table 1, S. aureus SA1199, unit inferred, read-out: MIC
[6] = Table 1, S. aureus SA1199, unit not given
[7] = Table 2, S. aureus SA1199, unit inferred
[8] = Staphylococcus aureus, SA1199, read-out: MBC^a = MBC in the absence of INF 401, Table 1, S. aureus SA1199, unit inferred
[9] = Staphylococcus aureus, SA1199, read-out: MBC^a = MBC in the absence of INF 401, Table 2, S. aureus SA1199, unit inferred

SMILES: Cc1cccc(CNC(=O)N/N=C/c2c(O)ccc3ccccc23)c1
^55Fe Accm. (S. aureus SA 29213): 1,500 DPM | Activity (minimal concentration required to kill 99.9% of S. aureus) (S. aureus strain SA1199): >10 µg/mL

SMILES: CCC[C@@H]1C[C@@H](C(=O)N[C@@H]([C@H]2O[C@H](SC)[C@H](O)[C@@H](O)[C@H]2O)[C@H](C)Cl)N(C)C1 [Clindamycin]
reduction in cell viability, antibiotic in combination with INF 401 (S. aureus (SA1199)): 3 log10 | MBC^b = MBC in the presence of 10 μg/ml of INF 402 (S. aureus SA1199 [1]): 2 | MIC (S. aureus ATCC 29213): < 1 µg/mL | MBEC (S. aureus ATCC 29213): 256 µg/mL | bactericidal concentration of antibiotic alone as multiple of MIC (S. aureus SA1199 [2]; S. aureus, absence of INF 401): 4 ×MIC | MBC (S. aureus SA1199 [2]; [4]): 4 µg/mL | MIC (S. aureus SA1199 [2]; [5]): 0.25 µg/mL | MBC^b = MBC in the presence of 5 μg/ml of INF 401 (S. aureus SA1199 [2]; [6]): 0.125 | MBC^a = MBC in the absence of INF 401 (S. aureus SA1199 [2]; [7]): 4 µg/mL | MIC (S. aureus SA1199 [2]; [7]): 0.25 µg/mL

SMILES: COc1cc(Cc2cnc(N)nc2N)cc(OC)c1OC [Trimethroprim]
MBC^a = MBC in the absence of INF 401 (S. aureus SA1199 [2]; Table 1, S. aureus SA1199, unit inferred): 32 µg/mL | MBC^b = MBC in the presence of 5 μg/ml of INF 401 (S. aureus SA1199 [2]; [6]): 8 | MIC (S. aureus SA1199 [2]; [6]): 1

SMILES: CO[C@H]1/C=C/O[C@@]2(C)Oc3c(C)c(O)c4c(O)c(c(/C=N/N5CCN(C)CC5)c(O)c4c3C2=O)NC(=O)/C(C)=C\C=C\[C@H](C)[C@H](O)[C@@H](C)[C@@H](O)[C@@H](C)[C@H](OC(C)=O)[C@@H]1C [Rifampin]
MIC (S. aureus ATCC 29213): 0.0075 µg/mL | MBEC (S. aureus ATCC 29213): >2 µg/mL | MIC (S. aureus SA1199 [2]; Staphylococcus aureus, SA1199): 0.009 µg/mL | MBC (S. aureus SA1199 [2]; [8]): 0.06 µg/mL | MBC^b = MBC in the presence of 5 μg/ml of INF 401 (S. aureus SA1199 [2]; [6]): 0.0019

SMILES: O=C(N[C@H](CO)[C@H](O)c1ccc([N+](=O)[O-])cc1)C(Cl)Cl [Chloramphenicol]
effect of single agent on DNA integrity [3]: did not affect DNA integrity | reduction in cell viability, antibiotic in combination with INF 401 (S. aureus (SA1199)): 3 log10 | MBC^b = MBC in the presence of 10 μg/ml of INF 402 (S. aureus SA1199 [1]): 8 | amount of ^55Fe accumulated by cells, single agent (S. aureus SA 29213; LB, ^55FeCl3 30 min 37° C., chloramphenicol alone or INF 401 in absence of antibiotic): 4,976 DPM | bactericidal concentration in the absence of INF 401 as multiple of MIC (S. pneumoniae): 2 ×MIC | MIC (S. aureus SA1199 [2]; Staphylococcus aureus, SA1199): 8 µg/mL | MBC (S. aureus SA1199 [2]; [8]): > 64 µg/mL | MBC (S. aureus SA1199 [2]; [9]): > 64 µg/mL | MBC^b = MBC in the presence of 5 μg/ml of INF 401 (S. aureus SA1199 [2]; [6]): 4 | MIC (S. aureus SA1199 [2]; [7]): 8 µg/mL

SMILES: CC[n+]1c(-c2ccccc2)c2cc(N)ccc2c2ccc(N)cc21 [Ethidium bromide]
MBC^b = MBC in the presence of 10 μg/ml of INF 402 (S. aureus SA1199 [1]): >128 | MIC (S. aureus SA1199 [2]; Staphylococcus aureus, SA1199): 16 µg/mL | MBC (S. aureus SA1199 [2]; [8]): > 128 µg/mL | MBC (S. aureus SA1199 [2]; [9]): > 128 µg/mL | MBC^b = MBC in the presence of 5 μg/ml of INF 401 (S. aureus SA1199 [2]; [6]): >128 | MIC (S. aureus SA1199 [2]; [7]): 16 µg/mL

SMILES: Cc1ccc(CNC(=O)N/N=C/c2c(O)ccc3ccccc23)cc1
^55Fe Accm. (S. aureus SA 29213): 9,100 DPM | Activity (minimal concentration required to kill 99.9% of S. aureus) (S. aureus strain SA1199): 1.25 µg/mL

SMILES: COc1ccccc1NC(=O)N/N=C/c1c(O)ccc2ccccc12
^55Fe Accm. (S. aureus SA 29213): 1,900 DPM | Activity (minimal concentration required to kill 99.9% of S. aureus) (S. aureus strain SA1199): >10 µg/mL

MIC (S. aureus SA1199 [2]; [5]): 1 µg/mL
SMILES: [H]/N=C(\N/C(=N/[H])NCCCCCCNC(=N)NC(=N)Nc1ccc(Cl)cc1)Nc1ccc(Cl)cc1 [Chlorhexidine]
MBC (S. aureus SA1199 [2]; [4]): 4 µg/mL | MBC^b = MBC in the presence of 5 μg/ml of INF 401 (S. aureus SA1199 [2]; [6]): 1
